Read-outs that look alike come from different tables or passages of the source. Where a SMILES comes first, the peptide text is derived from it. Where no end group is shown, it is not given here. The star is where a group is joined. RhodamineB = CCN(CC)c1ccc2c(-c3ccccc3C(=O)*)c3ccc(=[N+](CC)CC)cc-3oc2c1
Tests used:
FPRL1 [1] = target: T1, FPRL1 (Homo sapiens, UniProt P25090); assay: Cytosolic calcium mobilization in neutrophils (Fura-2 fluorescence), FPRL1 agonist WKYMVM; assay type: cell-based
T1 construct: Neutrophil granulocytes were isolated from buffy coats obtained from healthy adults; endogenous in cells; host or cells: human neutrophil granulocytes from buffy coats of healthy adults
T1 sequence (P25090 1-351): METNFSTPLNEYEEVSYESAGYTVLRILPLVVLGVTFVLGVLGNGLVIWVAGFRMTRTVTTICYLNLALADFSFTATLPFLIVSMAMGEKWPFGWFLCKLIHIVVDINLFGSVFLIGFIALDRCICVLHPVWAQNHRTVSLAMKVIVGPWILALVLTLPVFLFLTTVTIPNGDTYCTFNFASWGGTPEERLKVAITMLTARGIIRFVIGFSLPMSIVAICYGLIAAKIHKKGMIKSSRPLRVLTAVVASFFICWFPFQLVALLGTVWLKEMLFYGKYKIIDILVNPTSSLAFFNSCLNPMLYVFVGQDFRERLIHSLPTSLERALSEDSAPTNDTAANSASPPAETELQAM
Protocol: (§1) Neutrophil granulocytes were isolated from buffy coats obtained from healthy adults. After dextran sedimentation at 1 × g, hypotonic lysis of the remaining erythrocytes, and centrifugation in a Ficoll-Paque gradient, the neutrophils were washed twice and resuspended (1 × 10^7 /ml) in Krebs-Ringer phosphate buffer containing glucose (10 mM), Ca^2+ (1 mM), and Mg^2+ (1.5 mM) (KRG; pH 7.3). The cells were stored on melting ice and used within 120 min of preparation.
(§2) Neutrophils at a density of 2 × 10^7/ml in Ca^2+-free KRG supplemented with bovine serum albumin (BSA, 0.1%) were incubated with the acetoxymethylated derivative fura-2/AM (2 μM) at room temperature for 30 minutes. The cells were washed twice and resuspended in KRG, adjusted to 2 × 10^7/ml and kept protected from light on ice until use. Cells with or without PBP10 were equilibrated for 5 minutes at 37°C, after which the peptide agonist was added. The fura-2 fluorescence was followed with a luminescence spectrometer (LS50B; Perkin Elmer Corp.) using excitation wavelengths of 340 nm and 380 nm, and an emission wavelength of 510 nm and the [Ca^2+]i was calculated as described earlier.

FPR [2] = assay: Cytosolic calcium mobilization in neutrophils (Fura-2 fluorescence), FPR agonist fMLF; assay type: cell-based, human
Protocol: as §1, §2

FPRL1 [3] = target: T1, FPRL1; assay: Neutrophil NADPH-oxidase activity (superoxide anion release, isoluminol-enhanced chemiluminescence) induced through FPRL1; assay type: cell-based; details: for Effect on WKYMVM induced NADPH-oxidase activity (superoxide production): FPRL1 stimulated by WKYMVM, concentration of test substance not given, antagonists and rhodamine: data not shown
Protocol: as §1
(§3) Neutrophil production and release of superoxide anions was measured by means of an isoluminol-enhanced chemiluminescence (CL) assay. The CL activity was measured in a six-channel Biolumat LB 9505 apparatus (Berthold Co., Wildbad, Germany), using disposable 4-ml polypropylene tubes with a 900-μl reaction mixture containing 10^5–10^6 neutrophils, horseradish peroxidase (4 U) and isoluminol (20 μM) with and without cytochalasin B or PBP10. The measuring tubes were equilibrated for 5 to 10 minutes at 37°C and the cells were activated by addition of a receptor specific peptide agonist, fMLF for FPR and WKYMVM for FPRL1. The light emission was recorded continuously. Details about the CL technique are given in [45].

[4] = test system: plasma membrane of neutrophils and other cells; details: cited from earlier work
FPR [5] = assay: Mobilization of CR3 to the neutrophil cell surface (FACS), fMLF induced; assay type: cell-based, human; details: PBP10 1 μM at 37°C for 5 minutes, then fMLF 100 nM for 10 minutes, four independent experiments
Protocol: as §1
(§4) The exposure of CR3 (CD11b/CD18) on the neutrophil cell surface was assessed by immunostaining and FACS-analysis. Cells challenged with peptide agonists with or without PBP10 were fixed with ice-cold paraformaldehyde and washed with FACSwash (PBS, 0.02% NaN3), after which the cells were incubated at 4°C with phycoerythrin-conjugated anti-CR3 antibodies (CD11b; Becton Dickinson 10 μl/10^6 cells) before analysis using a FACScan (Becton Dickinson, Mountain View, CA).

FPR [6] = assay: Neutrophil NADPH-oxidase activity (superoxide anion release, isoluminol-enhanced chemiluminescence) induced through FPR; assay type: cell-based, human; details: for Effect on fMLF induced NADPH-oxidase activity (superoxide production): FPR stimulated by fMLF, concentration of test substance not given, data not shown
Protocol: as §1, §3

[7] = parameters: method as in earlier work; details: cited from earlier work
FPRL1 [8] = target: T1, FPRL1; assay: Mobilization of CR3 to the neutrophil cell surface (FACS), WKYMVM induced; assay type: cell-based; details: PBP10 1 μM at 37°C for 5 minutes, then WKYMVM 100 nM for 10 minutes, four independent experiments
Protocol: as §1, §4

FPRL1 [9] = target: T1, FPRL1; parameters: method as in PMID 15147563; details: cited from earlier work
FPR [10] = test system: FPR; parameters: method as in PMID 15147563; details: cited from earlier work
PKC = assay: Neutrophil NADPH-oxidase activity induced by the receptor independent PKC activator PMA; assay type: cell-based, human; details: neutrophils incubated 120 minutes with PTX 500 ng/ml, then PMA 100 nM
[11] = human neutrophils, 100 nM, Fura-2

CCN(CC)c1ccc2c(-c3ccccc3C(=O)N[C@@H](CCC(N)=O)C(=O)N[C@@H](CCCNC(=N)N)C(=O)N[C@@H](CC(C)C)C(=O)N[C@@H](Cc3ccccc3)C(=O)N[C@@H](CCC(N)=O)C(=O)N[C@H](C(=O)N[C@@H](CCCCN)C(=O)NCC(=O)N[C@@H](CCCNC(=N)N)C(=O)N[C@@H](CCCNC(=N)N)C(=O)O)C(C)C)c3ccc(=[N+](CC)CC)cc-3oc2c1 [PBP10, rhodamine-B-QRLFQVKGRR] (RhodamineB-QRLFQVKGRR-OH; C-terminus assumed)
Effect on the calcium response induced by WKYMVM (FPRL1 [1]; PBP10 1 μM, 5 minutes at 37°C prior to WKYMVM 100 nM, Fura-2, representative experiment): did not alter | Effect on the calcium response induced by fMLF (FPR [2]; PBP10 1 μM, 5 minutes at 37°C prior to fMLF 100 nM, Fura-2, representative experiment): did not alter | IC50 (FPRL1 [3]): 50 nM | Effect on NADPH-oxidase activity induced by WKYMVM in the presence of cytochalasin B (FPRL1 [3]; cytochalasin B 2.5 μg/ml, WKYMVM 100 nM): largely inhibited | Effect on WKYMVM induced NADPH-oxidase activity (superoxide production) (FPRL1 [3]; human neutrophils): totally inhibited | Membrane permeability (ability to cross the plasma membrane) ([4]; neutrophils and other cells): membrane permeable | Effect on FPR induced granule mobilization (CR3 exposure) (FPR [5]): without effect | Effect on the FPR-mediated NADPH-oxidase response in the presence of cytochalasin B (FPR [6]; cytochalasin B 2.5 μg/ml, fMLF 100 nM, PBP10 5 μM (higher concentrations required)): only partly inhibited | Effect on the fMLF induced NADPH-oxidase activity (FPR [6]; human neutrophils, PBP10 at concentrations up to 10 μM prior to activation with fMLF, isoluminol chemiluminescence): no effect | PIP2 binding [7]: PIP2 binding capacity | Effect on WKYMVM induced secretory response (mobilization of CR3 to the cell surface) (FPRL1 [8]): blocked

COC[C@H]1OC(=O)c2coc3c2[C@@]1(C)C1=C(C3=O)[C@@H]2CCC(=O)[C@@]2(C)C[C@H]1OC(C)=O [Wortmannin]
Effect of the PI3K inhibitor on oxidase activity induced by WKYMVM (FPRL1 [3]; neutrophils incubated with different concentrations at 37°C for 30 minutes, then WKYMVM 100 nM, representative experiment): largely inhibited | Effect of the PI3K inhibitor on oxidase activity induced by fMLF (FPR [6]; neutrophils incubated with different concentrations at 37°C for 30 minutes, then fMLF 100 nM, representative experiment): largely inhibited

C=C1[C@@H](C)[C@H]2[C@H](Cc3ccccc3)NC(=O)[C@]23OC(=O)/C=C/[C@H](O)CCC[C@@H](C)C/C=C/[C@H]3[C@@H]1O [cytochalasin B]
Effect of cytochalasin B on the transient rise in intracellular calcium induced by active FPRL1 (FPRL1 [1]; data not shown): not affected | Effect of cytochalasin B on the transient rise in intracellular calcium induced by active FPR (FPR [2]; data not shown): not affected | Effect of cytochalasin B on the neutrophil response to FPRL1 agonists (FPRL1 [9]): augmented and prolonged | Effect of cytochalasin B on the neutrophil response to FPR agonists (FPR [10]): augmented and prolonged

N-formyl-Met-Leu-Phe [fMLF, prototype FPR agonist]
Agonist-induced change in cytosolic calcium through FPR (FPR [2]; [11]): rapid and transient increase | Agonist-induced oxidative burst (release of superoxide anions) through FPR (FPR [6]): robust oxidative burst

QRLFQVKGRR
Effect of the unconjugated peptide on the WKYMVM induced neutrophil oxidase activity (FPRL1 [3]; 1 μM final concentration, 37°C for 5 minutes, then WKYMVM 100 nM): no effect | Membrane permeability (ability to cross the plasma membrane) [4]: lacks the ability to cross the plasma membrane | PIP2 binding [7]: same PIP2-binding characteristics as PBP10

Rh-VKGRRG (RhodamineB-VKGRRG) [truncated rhodamine labeled peptide]
IC50 (FPRL1 [3]; human neutrophils treated with the peptide prior to activation with WKYMVM, superoxide release by isoluminol chemiluminescence, 37°C, Fig 1D three independent experiments, read-out: IC50 value for the WKYMVM induced NADPH-oxidase response): 1000 nM

Trp-Lys-Tyr-Met-Val-Met-NH2 [WKYMVM, FPRL1 specific hexapeptide agonist]
Agonist-induced change in cytosolic calcium through FPRL1 (FPRL1 [1]; [11]): rapid and transient increase | Agonist-induced oxidative burst (release of superoxide anions) through FPRL1 (FPRL1 [3]; human neutrophils, 100 nM and 20 nM shown in Fig 1A): robust oxidative burst

WRWWWW [FPRL1 specific antagonist]
Effect on WKYMVM induced NADPH-oxidase activity (superoxide production) (FPRL1 [3]; human neutrophils): totally inhibited | Effect on fMLF induced NADPH-oxidase activity (superoxide production) (FPR [6]; human neutrophils): not affected

cyclosporine H
Effect on WKYMVM induced NADPH-oxidase activity (superoxide production) (FPRL1 [3]; human neutrophils): without effect | Effect on fMLF induced NADPH-oxidase activity (superoxide production) (FPR [6]; human neutrophils): totally inhibited

pertussis toxin
Effect of pertussis toxin on the FPRL1 mediated oxidase response (FPRL1 [3]; neutrophils incubated 120 minutes with PTX 500 ng/ml, then WKYMVM 100 nM): inhibited | Effect of pertussis toxin on oxidase activity induced by PMA (PKC): no reduction | Effect of pertussis toxin on the FPR mediated oxidase response (FPR [6]; neutrophils incubated 120 minutes with PTX 500 ng/ml, then fMLF 100 nM): inhibited

From publication PMC545074, “The two neutrophil members of the formylpeptide receptor family activate the NADPH-oxidase through signals that differ in sensitivity to a gelsolin derived phosphoinositide-binding peptide” (BMC Cell Biology, 2004)
